Bounds are passed on as bounds.

The target in one assay is T1, Human full-length Hsp90 (Homo sapiens, UniProt P08238).
T1 construct: E. coli expressed human full-length HSP90 protein, purified >95%; made in house; host or cells: E. coli
T1 sequence (P08238 whole entry): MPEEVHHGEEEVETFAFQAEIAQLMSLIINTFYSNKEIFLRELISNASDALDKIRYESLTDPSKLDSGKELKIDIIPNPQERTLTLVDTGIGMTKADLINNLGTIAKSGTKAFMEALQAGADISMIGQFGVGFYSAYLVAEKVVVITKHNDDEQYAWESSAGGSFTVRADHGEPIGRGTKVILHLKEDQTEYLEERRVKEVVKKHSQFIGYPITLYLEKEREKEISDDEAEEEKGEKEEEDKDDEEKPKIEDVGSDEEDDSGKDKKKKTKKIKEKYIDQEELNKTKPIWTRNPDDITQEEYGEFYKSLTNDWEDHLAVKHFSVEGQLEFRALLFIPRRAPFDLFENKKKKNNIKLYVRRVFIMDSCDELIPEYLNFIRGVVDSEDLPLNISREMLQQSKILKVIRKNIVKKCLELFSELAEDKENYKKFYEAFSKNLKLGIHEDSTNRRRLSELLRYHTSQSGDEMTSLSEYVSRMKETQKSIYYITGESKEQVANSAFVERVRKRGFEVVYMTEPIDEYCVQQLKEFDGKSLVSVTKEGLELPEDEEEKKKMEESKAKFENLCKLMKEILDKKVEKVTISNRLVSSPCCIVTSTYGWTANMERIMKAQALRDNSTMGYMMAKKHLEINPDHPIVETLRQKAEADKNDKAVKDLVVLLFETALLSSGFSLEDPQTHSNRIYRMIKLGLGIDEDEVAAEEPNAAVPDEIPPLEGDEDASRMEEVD
Nature of the assay: Fluorescence polarization assay (competitive binding to HSP90, probe RBT0045864-FAM). The note with it: fluorescence polarization assay, activity range; read-out: Hsp90 FP IC50. In a few lines:
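Competitive fluorescence polarization: test compound displaces FAM-labelled probe RBT0045864-FAM (200 nM working solution) from HSP90 after equilibration, and anisotropy change is measured. Compounds serially diluted; BSA-containing buffer; standard compound as positive control; Z′ from zero and positive controls.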
(Polarisation of emitted light reports the rotation of a fluorescent probe.)
For `CCOC(=O)c1cc2c(-c3ccc(C(F)(F)F)cc3)nc(N)nc2s1` [Example 2, 2-Amino-4-(4-trifluoromethyl-phenyl)-thieno[2,3-d]pyrimidine-6-carboxylic acid ethyl ester], the IC50 was above 10 µM.
On the same count and under the same terms, to `CCOC(=O)c1cc2c(C(C#N)c3ccc4c(c3)OCO4)nc(N)nc2s1` (stereo not drawn) [Example 316, 2-Amino-4-(benzo[1,3]dioxol-5-yl-cyano-methyl)-thieno[2,3-d]pyrimidine-6-carboxylic acid ethyl ester] belongs below 10 µM; to `CCOC(=O)c1cc2c(C(C#N)c3ccccc3)nc(N)nc2s1` (stereo not drawn) [Example 317], below 10 µM.
Turning to `CCOC(=O)c1cc2c(C(C#N)c3ccc(OC)cc3)nc(N)nc2s1` (stereo not drawn) [Example 318], the IC50 was above 10 µM.
With `CCOC(=O)c1cc2c(C#N)nc(N)nc2s1` [Example 319, 2-Amino-4-cyano-thieno[2,3-d]pyrimidine-6-carboxylic acid ethyl ester], the IC50 is below 10 µM.

System in the next assay: not listed separately
As to the kind of experiment: Sulforhodamine B (SRB) growth inhibition / growth arrest assay. The class given is cell-based. The conditions noted are these: activity range. As for the experimental part:
A growth inhibition assay was also employed for the evaluation of candidate HSP90 inhibitors:
Assessment of Cytotoxicity by Sulforhodamine B (SRB) Assay: Calculation of 50% Inhibitory Concentration (IC50).
Day 1 • 1) Determine cell number by haemocytometer. • 2) Using an 8 channel multipipettor, add 160 μl of the cell suspension (3600 cells/well or 2×10^4 cells/ml) to each well of a 96-well microtitre plate. • 3) Incubate overnight at 37° C. in a CO2 incubator. Day 2 • 4) Stock solutions of drugs are prepared, and serial dilutions of each drug are performed in medium to give final concentrations in wells. • 5) Using a multipipettor, 40 μl of drug (at 5× final concentration) is added to quadruplicate wells. • 6) Control wells are at either side of the 96 well plates, where 40 μl of medium is added. • 7) Incubate plates in CO2 incubator for 4 days […]. […] Leave for 15 mins. • 12) Wash off unbound SRB stain with four washes of 1% acetic acid. • 13) Dry plates in incubator. • 14) Solubilise SRB using 100 μl of 10 mM Tris base and put plates on plate shaker for 5 mins. • 15) Determine absorbance at 540 nm using a plate reader. Calculate mean absorbance for quadruplicate wells and express as a percentage of value for control, untreated wells. • 16) Plot % absorbance values versus log drug concentration and determine the IC50.
Regarding `CCOC(=O)c1cc2c(-c3ccc(C(F)(F)F)cc3)nc(N)nc2s1` [Example 2, 2-Amino-4-(4-trifluoromethyl-phenyl)-thieno[2,3-d]pyrimidine-6-carboxylic acid ethyl ester], the IC50 was below 50 µM.

As a reminder, the IC50 is the concentration needed to halve the response being measured.

Values taken from patent US8642594B2, “Substituted thieno[2,3-d]pyrimidines as HSP90 inhibitors” (Vernalis (R&D) Limited, priority 2003, dated 2014).
